Experimental findings from ChEMBL document CHEMBL5724914, “Linking interpersonal differences in gut microbiota composition and drug biotransformation activity” (2024) are described below.

For data set [1] the following is noted: human gut metagenome, 24 h, 2 µM.
The conditions of data set [2]: human gut metagenome, 24 h, 2 µM. This is another data set of the same source.
Data set [3] can be described thus: The drug is tested on Z-003 corresponding to pig gut metagenome with ENA study accession number: PRJEB37062 and ENA sample accession number: ERS12561803 for biotransformation under anaerobic condition. The drug concentrations were measured over 9 timepoints collected between 0 and 24 hours of incubation by liquid-chromatography-coupled mass spectrometry (LC–MS). Particulars: 2 µM.

For data set [4] the following is noted: human gut metagenome, 24 h, 2 µM. This is another data set of the same source.
For data set [5] the following is noted: human gut metagenome, 24 h, 2 µM. The source holds these as a separate data set.
The conditions of data set [6]: human gut metagenome, 24 h, 2 µM. This is another data set of the same source.
Data set [7] is described as follows: The drug is tested on Z-026 corresponding to metagenome with ENA study accession number: PRJEB37062 and ENA sample accession number: ERS12561825 for biotransformation under anaerobic condition. The drug concentrations were measured over 9 timepoints collected between 0 and 24 hours of incubation by liquid-chromatography-coupled mass spectrometry (LC–MS). Particulars: 2 µM.

Data set [8] is described as follows: The drug is tested on Z-017 corresponding to mouse gut metagenome with ENA study accession number: PRJEB37062 and ENA sample accession number: ERS12561816 for biotransformation under anaerobic condition. The drug concentrations were measured over 9 timepoints collected between 0 and 24 hours of incubation by liquid-chromatography-coupled mass spectrometry (LC–MS). The note with it: 2 µM.

For data set [9] the following is noted: human gut metagenome, 24 h, 2 µM. The source holds these as a separate data set.
A short description of data set [10]: The drug is tested on Z-002 corresponding to rabbit gut metagenome with ENA study accession number: PRJEB37062 and ENA sample accession number: ERS12561802 for biotransformation under anaerobic condition. The drug concentrations were measured over 9 timepoints collected between 0 and 24 hours of incubation by liquid-chromatography-coupled mass spectrometry (LC–MS). Particulars: 2 µM.

For data set [11] the following is noted: human gut metagenome, 24 h, 2 µM. This is another data set of the same source.
Data set [12] is described as follows: The drug is tested on WLS-220 corresponding to human gut metagenome with ENA study accession number: PRJEB37062 and ENA sample accession number: ERS12561769 for biotransformation under anaerobic condition. The drug concentrations were measured over 9 timepoints collected between 0 and 24 hours of incubation by liquid-chromatography-coupled mass spectrometry (LC–MS). The note with it: 2 µM.

Data set [13] in a line: The drug is tested on WLS-086 corresponding to human gut metagenome with ENA study accession number: PRJEB37062 and ENA sample accession number: ERS12561752 for biotransformation under anaerobic condition. The drug concentrations were measured over 9 timepoints collected between 0 and 24 hours of incubation by liquid-chromatography-coupled mass spectrometry (LC–MS). Particulars: 2 µM.

Data set [14] in a line: The drug is tested on WLS-006 corresponding to human gut metagenome with ENA study accession number: PRJEB37062 and ENA sample accession number: ERS12561741 for biotransformation under anaerobic condition. The drug concentrations were measured over 9 timepoints collected between 0 and 24 hours of incubation by liquid-chromatography-coupled mass spectrometry (LC–MS). The note with it: 2 µM.

Data set [15] can be described thus: The drug is tested on Z-014 corresponding to rat gut metagenome with ENA study accession number: PRJEB37062 and ENA sample accession number: ERS12561814 for biotransformation under anaerobic condition. The drug concentrations were measured over 9 timepoints collected between 0 and 24 hours of incubation by liquid-chromatography-coupled mass spectrometry (LC–MS). The note with it: 2 µM.

Data set [16] can be described thus: The drug is tested on Z-028 corresponding to mouse gut metagenome with ENA study accession number: PRJEB37062 and ENA sample accession number: ERS12561827 for biotransformation under anaerobic condition. The drug concentrations were measured over 9 timepoints collected between 0 and 24 hours of incubation by liquid-chromatography-coupled mass spectrometry (LC–MS). Particulars: 2 µM.

Data set [17] is described as follows: The drug is tested on Z-008 corresponding to metagenome with ENA study accession number: PRJEB37062 and ENA sample accession number: ERS12561808 for biotransformation under anaerobic condition. The drug concentrations were measured over 9 timepoints collected between 0 and 24 hours of incubation by liquid-chromatography-coupled mass spectrometry (LC–MS). Particulars: 2 µM.

Data set [18] is described as follows: The drug is tested on Z-018 corresponding to pig gut metagenome with ENA study accession number: PRJEB37062 and ENA sample accession number: ERS12561817 for biotransformation under anaerobic condition. The drug concentrations were measured over 9 timepoints collected between 0 and 24 hours of incubation by liquid-chromatography-coupled mass spectrometry (LC–MS). The note with it: 2 µM.

The conditions of data set [19]: human gut metagenome, 24 h, 2 µM. The source holds these as a separate data set.
Further: call rule not given here.

Regarding `CN1CCc2cccc3c2[C@H]1Cc1ccc(O)c(O)c1-3` [APOMORPHINE], the “Bacterial Biotransformation” value is recorded as “Compound NOT metabolized” in [1]; “Compound NOT metabolized” in data set [2]; “Compound metabolized” in data set [3]; “Compound NOT metabolized” in [4]; “Compound NOT metabolized” in data set [5]; “Compound NOT metabolized” in [6]. The “Bacterial Biotransformation” value in data set [7], in data set [8], in [9], in [10], in [11] and in data set [12] was “Compound NOT metabolized” in each case. Also, the “Bacterial Biotransformation” value in data set [13] and in [14] was “Compound NOT metabolized” each time.

Take `CNC(=C[N+](=O)[O-])NCCSCc1csc(CN(C)C)n1` [NIZATIDINE]: the “Bacterial Biotransformation” value in data set [1], in data set [15], in data set [2], in [3], in [16] and in data set [4] was “Compound NOT metabolized” each time. Moreover, the “Bacterial Biotransformation” value in data set [5] is “Compound NOT metabolized”; in data set [6] it was “Compound metabolized”; in data set [17], “Compound NOT metabolized”; in data set [18], “Compound NOT metabolized”; in [7], “Compound NOT metabolized”; in data set [19] it was “Compound NOT metabolized”. The “Bacterial Biotransformation” value in data set [9] is “Compound metabolized”; in data set [10], “Compound NOT metabolized”; in [11] it was “Compound metabolized”; in data set [12], “Compound NOT metabolized”; in [13], “Compound metabolized”; in data set [14], “Compound metabolized”.

With `Cc1nc2n(c(=O)c1CCN1CCC(c3noc4cc(F)ccc34)CC1)CCCC2O` (centres undefined) [PALIPERIDONE], the “Bacterial Biotransformation” value in data set [1] is “Compound metabolized”; in data set [15], “Compound NOT metabolized”; in [2] it was “Compound metabolized”; in data set [3] it was “Compound NOT metabolized”; in data set [4], “Compound metabolized”; in data set [5], “Compound metabolized”. The “Bacterial Biotransformation” value in data set [6] was “Compound metabolized”; in data set [17], “Compound NOT metabolized”; in data set [18], “Compound NOT metabolized”; in data set [7] it was “Compound NOT metabolized”; in data set [19] it was “Compound NOT metabolized”; in data set [8], “Compound NOT metabolized”. Moreover, the “Bacterial Biotransformation” value in data set [9], in [11], in data set [12], in data set [13] and in [14] was “Compound metabolized” in each case.
